Here are results for 40 substances from patent publication US12653872B2, “Mimotopes of alpha-synuclein and vaccines thereof for the treatment of synucleinopathy” (AC Immune SA, priority 2008, dated 2026).

The test system of test [1] is monoclonal antibody specific for human alpha-synuclein at position 115-122 (AFFiRiS3/9, A509). Nature of the test: In vitro inhibition assay (ELISA): peptide competes with binding of the antibody to the coated original epitope. Particulars: for Inhibition: competition code, OD at 40 μg peptide compared to original peptide; for competition in inhibition ELISA: 40 μg peptide, compared to original peptide p4448, FIG. 3. On the set-up: species or system mouse. The method, then:
2. In Vitro Inhibition Assay (ELISA)
Different amounts of peptides (concentrations ranging from 40 μg to 0.3 μg (serial dilutions), as indicated in the respective figures) derived from Phage Display were incubated with the monoclonal antibody that was used for the screening procedure. Peptides diminishing subsequent binding of the antibody to the original human alpha-synuclein epitope (amino acids: 115-122 of human alpha-synuclein protein) coated on ELISA plates were considered as inhibiting in this assay.
Weak inhibition means more peptide is required to lower AB binding than with the original epitope; strong inhibition means similar peptide amounts are required for mimotope and original epitope for lowering AB binding. Mimotopes are compared to the original peptide as standard. OD at 40 μg peptide used in the assay is used to calculate the competition capacity compared to original peptide.

Test [2] shares this test system. The experiment in a line: In vitro binding assay (ELISA): peptide-BSA on plate, incubated with the screening monoclonal antibody. On the set-up: species or system mouse. As to conditions: FIG. 1 and FIG. 2. An excerpt:
1. In Vitro Binding Assay (ELISA)

Test [3] deals with injected peptide (peptide-BSA conjugate). Nature of the test: Mimotope-KLH vaccination of mice: serum titer against injected peptide (ELISA). The test is classed as in vivo, C57/Bl6 mice. As to conditions: for titers upon vaccination of mice: FIG. 2 legend; for immune response against injected peptide: C57/Bl6 mice, 30 μg peptide-KLH s.c., alum, repeated vaccination. The method, then: (§1) Inhibiting as well as non-inhibiting peptides were coupled to KLH and injected into mice (wildtype C57/Bl6 mice; subcutaneous injection into the flank) together with an appropriate adjuvant (aluminium hydroxide). Animals were vaccinated 4-6 times in biweekly intervals and sera were taken biweekly as well. Titers to injected peptides as well as to an irrelevant peptide were determined with every serum. Titers against the recombinant human alpha-synuclein protein and recombinant human beta-synuclein were determined starting with Serum 3 respectively. Pooled sera were tested against the original human alpha-synuclein epitope (aa115-122). In general sera were analysed by reaction against peptides coupled to Bovine Serum Albumin (BSA) and recombinant full length proteins which were immobilised on ELISA plates. Titers were determined using anti mouse IgG specific antibodies. For detailed results see FIGS. 4A, 4B, 5A and 5B.
(§2) Female C57/Bl6 mice, 5-6 mice per group, were subcutaneously immunized with 30 μg peptide coupled to KLH. Control groups were administered p4448-KLH conjugate. As adjuvant alum was used (always 1 mg per mouse). […] The in vitro ELISA assay to determine the antibody titer was performed with sera of single mice or pooled sera (see FIGS. 5A and 5B) after each vaccination in a two week interval (see FIGS. 4A, 4B, 5A and 5B, respectively). The wells of the ELISA plate were coated with mimotope-BSA conjugate and an irrelevant peptide-BSA conjugate (negative control). The positive control was performed by reaction of the parental antibody with the respective mimotope-BSA conjugate. The detection was performed with anti-mouse IgG. Additionally, recombinant proteins were immobilised on ELISA plates and sera reacted accordingly.

Test [4] deals with recombinant human beta-synuclein. The experiment in a line: Mimotope-KLH vaccination of mice: serum titer against recombinant beta-synuclein (ELISA). The test is classed as in vivo, C57/Bl6 mice. Particulars: pooled sera after 4 vaccinations; FIG. 5B. The method, then:
as §1, §2

Test [5] concerns human a-syn on brain sections of mice overexpressing human a-syn. The experiment in a line: In situ testing: immunohistochemistry with mimotope-induced sera on mouse brain sections. As to conditions: for potential to induce a-syn specific antibodies: vaccines based on the peptide. The protocol: Selected sera eliciting an a-syn cross reactivity were also tested for the ability to detect human a-syn on mouse brain sections in situ. For detailed results see FIGS. 6A, 6B and 6C.
Mimotopes eliciting an a-syn specific immune response can also detect a-syn immunoreactive inclusions in transgenic mouse brain tissue. As depicted in FIGS. 6A, 6B and 6C, sera derived from mimotope vaccinated animals are able to stain a-syn positive structures present on mouse brain sections from animals overexpressing human a-syn. Briefly, sera positive for human a-syn reactivity in ELISA have been used for immunohistochemistry (IHC). Paraffin embedded […] sections of mouse brain, mounted on Superfrost Plus glass slides, were subjected to IHC. Sections were incubated with sera (dilution 1:100 and 1:400 in PBS) and subsequently stained according to standard protocols for immunohistochemistry using VECTASTAIN™ ABC Systems (which is an Avidin-Biotin Complex Immunohistochemical Staining Kit from Vector Laboratories), DAB and MOM blocking (all reactions have been performed using commercially available reagents obtained from Vector labs respectively and have been performed according to manufacturer's protocols). Counterstaining was performed with Haematoxylin. Slides were mounted in Entellan and subsequently documented using conventional brightfield microscopy. A monoclonal antibody specific for human a-syn (LB509, Covance) has been used as a positive control for synuclein detection at a final dilution of 1/250.

The subject of another test is irrelevant peptide p1253. Nature of the test: Mimotope-KLH vaccination of mice: serum titer against irrelevant peptide (ELISA). The test is classed as in vivo. Particulars: C57/Bl6 mice, alum. The method, then: as §1, §2
The subject of test [6] is recombinant human alpha-synuclein protein. The experiment in a line: Mimotope-KLH vaccination of mice: serum titer against recombinant alpha-synuclein (ELISA). It counts as in vivo, C57/Bl6 mice. As to conditions: pooled sera after 4 vaccinations; FIG. 5B. The method, then: as §1, §2

In the case of CDQPVLPDG [p4496], the Inhibition in test [1] is 1 (Weaker than original epitope (OD of 40 μg peptide below 5 times of original peptide)).
As for “p4447: Human beta-syn (Full length; NCBI Acc. No. NP_001001502)”, the “binding to / detection by the monoclonal antibody in ELISA” value (“binding to / detection” below) in test [2] was “are not detected”.
As for CDNPVHPEN [p4492], in test [1], the “competition in inhibition ELISA” value is given as “do not show competition”.
In the case of CDRPVYPDI [p4558], in test [1], the Inhibition is listed as 2 (strong inhibition (as original epitope; OD of 40 μg peptide below 2 times of original peptide)).
The same measure, in the same setting: the result for CDMPVSPDR [p4555] reads 1 (Weaker than original epitope (OD of 40 μg peptide below 5 times of original peptide)).
As to CDRPVTPDN [p4491], in test [1], the “competition in inhibition ELISA” value is “show similar competition as the original peptide p4448” and the Inhibition worked out at 7.
As for CDRPVAPEG [p4553], in test [3], the “titers upon vaccination of mice” value is listed as > 1/20000. Also, in test [2], the “binding to / detection” value is “strong binding”.
As to DMPVDPDN, the “reactivity of induced sera with beta-synuclein” value in test [4] is “did not distinguish between the two recombinant synuclein proteins”.
CDMPVTPDT [p4562]: the “potential to induce a-syn specific antibodies” value (shortened to “potential”) in test [5] is reported as “potential to induce a-syn specific antibodies”. Besides, the Inhibition in test [1] is reported as 2 (strong inhibition (as original epitope; OD of 40 μg peptide below 2 times of original peptide)).
With DMPVDPDNC [p4449], in test [2], the “binding to / detection” value was “are detected by the antibody”.
With CDSPVWAEN [p4466], the “immune response against unrelated sequence p1253” value in the test on irrelevant peptide p1253 is reported as “failed to induce an unspecific immune response”. In addition, the “immune response against injected peptide” value in test [3] is recorded as “elicited immune responses against the injected peptide”.
As to CDSPVLPDG [p4498], the “a-syn staining by induced serum in immunohistochemistry” value in test [5] (murine hippocampus, human a-syn transgenic, sera diluted 1:100 and 1:400, FIG. 6C) is on record as “specific a-syn staining similar to the staining present in FIG. 6A”. Moreover, the “potential” value in test [5] is on record as “potential to induce a-syn specific antibodies”. In addition, the Inhibition in test [1] was 1 (Weaker than original epitope (OD of 40 μg peptide below 5 times of original peptide)).
Regarding CDMPVDPGS [p4450], the “binding to / detection” value in test [2] was “are not detected”.
For CDMPVWPDG [p4569], the Inhibition in test [1] is reported as 1 (Weaker than original epitope (OD of 40 μg peptide below 5 times of original peptide)).
For CHDRPVTPDN [p4490], in test [1], the “competition in inhibition ELISA” value is listed as “show similar competition as the original peptide p4448” and the Inhibition is 2 (strong inhibition (as original epitope; OD of 40 μg peptide below 2 times of original peptide)).
As to CDTPVIPDN [p4495], the Inhibition in test [1] is 1 (Weaker than original epitope (OD of 40 μg peptide below 5 times of original peptide)).
On the same count and under the same terms, the result for CDSPVVPDN [p4564] reads 1 (Weaker than original epitope (OD of 40 μg peptide below 5 times of original peptide)).
Still for that read-out and setting: the result for CDVPVLPDN [p4493] reads 2 (strong inhibition (as original epitope; OD of 40 μg peptide below 2 times of original peptide)); that for CDAPVYPDG [p4570], 1 (Weaker than original epitope (OD of 40 μg peptide below 5 times of original peptide)).
In the case of CDTPVLAEN [p4467], the “immune response against unrelated sequence p1253” value with irrelevant peptide p1253 was “failed to induce an unspecific immune response”. The “immune response against injected peptide” value in test [3] was “elicited immune responses against the injected peptide”.
Turning to CDQPVLPD [p4456], the “immune response against unrelated sequence p1253” value in the test with irrelevant peptide p1253 is “failed to induce an unspecific immune response”. The “immune response against injected peptide” value in test [3] is listed as “elicited immune responses against the injected peptide”. The “potential” value in test [5] is “potential to induce a-syn specific antibodies”.
In the case of CYDRPVQPDR [p4572], in test [1], the Inhibition is 1 (Weaker than original epitope (OD of 40 μg peptide below 5 times of original peptide)).
Regarding CEMPVDPDN [P4648], in test [1], the Inhibition was 1 (Weaker than original epitope (OD of 40 μg peptide below 5 times of original peptide)).
On the same count and under the same terms, the value for CDSPVLPDN [p4464] was 2 (strong inhibition (as original epitope; OD of 40 μg peptide below 2 times of original peptide)); that for CDLPVTPDR [p4566] was 1 (Weaker than original epitope (OD of 40 μg peptide below 5 times of original peptide)).
With CDAPVTPDT [p4563], the Inhibition in test [1] is 1 (Weaker than original epitope (OD of 40 μg peptide below 5 times of original peptide)).
In the case of CDQPVYPDI [p4557], in test [3], the “titers upon vaccination of mice” value is on record as > 1/20000. Besides, the “binding to / detection” value in test [2] was “weaker binding than the original peptide p4448”. Further, in test [1], the Inhibition was 1 (Weaker than original epitope (OD of 40 μg peptide below 5 times of original peptide)).
On to CDRPVQPDR [p4571], for which the Inhibition in test [1] is 1 (Weaker than original epitope (OD of 40 μg peptide below 5 times of original peptide)).
DMPVDPGSC [p4451]: in test [2], the “binding to / detection” value was “are not detected”.
With CDMPVLPDN [p4463], the “reactivity of induced sera with alpha-synuclein” value in test [6] is given as “show titers against alpha-synuclein”. For the same substance, the Inhibition in test [1] is given as 2 (strong inhibition (as original epitope; OD of 40 μg peptide below 2 times of original peptide)).
In the case of DQPVLPDC [p4640], in test [1], the Inhibition is on record as 2 (strong inhibition (as original epitope; OD of 40 μg peptide below 2 times of original peptide)).
On the same count and under the same terms, the value for CDQPVLPDN [p4462] was 2 (strong inhibition (as original epitope; OD of 40 μg peptide below 2 times of original peptide)); that for CDMPVLPDG [p4497] was 1 (Weaker than original epitope (OD of 40 μg peptide below 5 times of original peptide)).
Take DMPVLPDC [p4641]: in test [1], the Inhibition is reported as 2 (strong inhibition (as original epitope; OD of 40 μg peptide below 2 times of original peptide)).
The same measure, in the same setting: the result for CDTPVLPDS [p4561] reads 2 (strong inhibition (as original epitope; OD of 40 μg peptide below 2 times of original peptide)); that for CDHPVTPDR [p4559], 1 (Weaker than original epitope (OD of 40 μg peptide below 5 times of original peptide)).
As to CDMPVLPD [p4457], the “reactivity of induced sera with alpha-synuclein” value in test [6] is listed as “show titers against alpha-synuclein”.
For CDTPVYPDN [p4494], the Inhibition in test [1] is 2 (strong inhibition (as original epitope; OD of 40 μg peptide below 2 times of original peptide)).
Same read-out and setting: the result for CDHPVHPDS [p4554] reads 1 (Weaker than original epitope (OD of 40 μg peptide below 5 times of original peptide)); that for CDSPVHPDT [p4567], 1 (Weaker than original epitope (OD of 40 μg peptide below 5 times of original peptide)).
